Consider 1 compound from patent US20120040956A1, “INHIBITORS OF HIF-1 PROTEIN ACCUMULATION” (INTERMED DISCOVERY GMBH, priority 2008, published 2012).

In assay [1] the test system is human vasculature (CD34 positive vessels) from transplanted HUVECs. The assay is described as follows: Spheroid-based in vivo angiogenesis assay in SCID mice. The settings on record: 0.3 mg/ml p.o. every 3rd day, pvalue=0.0001. The source says:
Human endothelial cells (ECs; HUVECs) are applied subcutaneously in (n=10) SCID mice embedded in extracellular matrix components in the presence of smooth muscle cells (SMCs) and fibroblasts (NHDFs). The transplanted human ECs (EC spheroids in combination with ECs in suspension) form a complex and perfused three dimensional network of capillaries of human origin that is anastomosed (connected with) with the mouse vasculature and host (mouse) pericyte-covered. The quality of the newly formed vasculature is monitored by micro vessel density counting. Aim of the study is to investigate the anti-angiogenic potential of the test items in the spheroid-based in vivo angiogenesis assay. […]
In the standard assay (with VEGF-A and FGF-2 stimulation and only ECs) the first perfused vessels are usually detected at day 4 to day 6. […]
For histological examination of the human vasculature, paraffin sections (thickness=8-10 μm) were prepared from all plugs. Blood vessel formation was detected by staining the sections for human CD34 (NCL-END, Menarini, Berlin, Germany). Three sections per plug were analysed and three images were taken from each section at a magnification of 200× using the Eclipse TE2000-U microscope (Nikon, Kanagawa, Japan). The area analyzed per section (three images) was 0.44 mm^2. […]

The test system of assay [2] is PDK1 (pyruvate dehydrogenase kinase1). Briefly: HIF-1 target gene PDK1 expression in 293T cells by real-time PCR. It is filed as cell-based. Conditions: Homo sapiens, HEK-293T, 1 h pretreatment, 8 h hypoxia, read-out: IC50, suppression of endogenous PDK1 gene expression. On the procedure: Human 293T cells were cultivated either under normoxic conditions or under hypoxic conditions (1% oxygen) for 4 and 8 hs respectively. Cells were harvested, followed by the isolation of RNA and the generation of cDNAs from Oligo (dT)20 primers using a Reverse Transcriptase kit. Then gene expression was measured by real-time PCR for the following two selected HIF-1α target genes: LDH-A (lactate dehydrogenase isoform A), and PDK1 (pyruvate dehydrogenase kinase1). Real-time PCR was performed with cDNA using specific primers and the SYBR Green I detection chemistry system (Applied Biosystems), utilizing an ABI Prism 7300 system. Actin was also measured as an internal control. The relative abundance of the different genes was calculated by the comparative CT method. In order to facilitate comparison, gene expression under normoxic conditions was arbitrarily set to 1 for each of the three genes. Two independent experiments confirmed PDK1 as the gene which was induced most prominently compared to LDH.
To investigate the capability of the compounds to inhibit PDK1, 293T cells were pretreated for 1 h with 3 different concentrations of the respective inhibitors (IMD-019064; IMD-026259; and IMD-026260). Subsequently, cells were incubated under normoxic/hypoxic conditions for further 8 h and the expression of PDK1 was quantified by real-time PCR as described above.
For orientation: In qPCR the cycle at which signal appears reflects the starting amount.

The subject of the next assay is IKKy/NEMO. Briefly: Cellular protein translation in 293T cells (anti-IKKy/NEMO immunoblotting). Format: cell-based, human. Conditions: 100 nM, 10 h and 24 h. As to the method: 293T cells were grown in the presence of the known translation inhibitor cycloheximide (10 μg/ml) and 100 nM of IMD-019064, IMD-026259 and IMD-026260 respectively. […] Cells were harvested after 10 h and 24 h and cell lysates were produced. Equal amounts of protein contained in the cell lysates were used for immunoblotting with anti-IKKy/NEMO antibodies as shown in FIG. 12. IKKy/NEMO is a constitutively expressed relatively labile protein. Thus successful inhibition of cellular protein translation should result in significant decline of anti-IKKy/NEMO signal.

Another assay relates to HIF-1α mRNA. Briefly: Hif-1α mRNA expression by real-time PCR. Conditions: human cells, 250 nM for 3 h, normoxic or hypoxic (45 minutes, 1% O2). It is filed as cell-based. On the procedure: In order to investigate whether the compounds of the invention do exert their HIF-1-1 suppressive action via inhibition of HIF-1-1 transcription the compounds were tested for their effects on HIF-1α mRNA production. In all experiments, human cells were exposed to efficiently blocking concentrations (250 nM) of the test compounds for 3 h. Then cells were further cultivated under normoxic or hypoxic conditions (45 minutes, 1% O2) respectively. Afterwards cell samples were harvested and RNA was extracted. cDNA was synthesized using specific primers and the PE Applied Biosystems Reverse Transcription Reagents. Real-time PCR was performed by using the SYBR Green I detection chemistry (Applied Biosystems) and an ABI Prism 7300 system. The expression of Hif-1α was quantified and results were normalized to Hprt1 and β-Actin (“housekeeping-gene”) expression. The relative abundance of the different genes was calculated by the comparative CT method. HIF-1α transcription of normoxic control cells was arbitrarily set to 1. […] Therefore an effect of IMD-compounds on HIF-1-dependent gene expression seems not to be mediated on HIF-1α transcription (FIG. 5).

Consider `CNCCOc1ccc2c(c1)OC1(c3ccc(Cl)cc3)C(c3ccccc3)CC(O)C21O` (stereo not shown) [IMD-026260, (1,3a,8b)-3a-(4-chlorophenyl)-6-(2-(methylamino)ethoxy)-3-phenyl-2,3,3a,8b-tetrahydro-1H-benzo[d]cyclopenta[b]furan-1,8b-diol], for which the “reduction of human vessel number compared to a vehicle control” value in assay [1] is given as 42%. Moreover, the IC50 in assay [2] amounted to 8 nM. For the same compound, the “anti-IKKy/NEMO signal (cellular protein translation)” value with IKKy/NEMO is recorded as “did not result in reduced anti-IKKy/NEMO signals”. The “effect on Hif-1α mRNA production” value in the assay with HIF-1α mRNA is “did not show any effects”.

One may read the IC50 as the concentration that inhibits the measured activity by half.
